Reference: patent publication US20210322327A1, “EXTRACELLULAR VESICLES COMPRISING STING-AGONIST” (Codiak BioSciences, Inc., priority 2018, published 2021)

Key:
B16F10 melanoma cells = experiment: B16F10 subcutaneous primary tumor growth in lung metastasis challenge study; format: in vivo, C57BL/6 mice; details: by day 17
Text: Activation of the STING pathway promotes antigen presentation and induces a durable T-cell response, as shown in Examples 11 and 12. Thus, the immune memory response induced by EXOSTING™ may be sufficient to prevent tumor metastasis after a local administration in a primary tumor. To test this hypothesis, exosomes purified from HEK293SF cells overexpressing PTGFRN were loaded with the cyclic dinucleotide 3-3 cAIMPdFSH as described in Example 1. C57BL/6 mice were inoculated subcutaneously with 1×10^6 B16F10 melanoma cells on day zero and challenged with an additional tail vein injection of 1×10^5 B16F10 melanoma cells to seed lung metastases (n=8 mice per group). Five, eight, and eleven days post-inoculation the mice were injected intratumorally at the subcutaneous tumor with PBS, 20 μg 3-3 cAIMPdFSH, 120 ng 3-3 cAIMPdFSH, or either 120 ng, 12 ng, or 1.2 ng 3-3 cAIMPdFSH loaded in PTGFRN-overexpressing exosomes (Exo STING Agonist). […] Lungs from all mice were harvested, imaged, and counted for metastases. […] As little as 12 ng of Exo STING Agonist prevented lung metastasis to the same extent as 20 μg STING Agonist (FIGS. 46B and 47).

STING pathway = experiment: Cytokine levels after single intratumoral dose in C57BL/6 and STING knock-out tumor-bearing mice; format: in vivo, C57BL/6 mice and C57BL/6-Tmem173^gt mice; details: C57BL/6 mice; 20 μg intratumoral, four hours
Procedure: Three groups of C57BL/6 mice and C57BL/6-Tmem173^gt mice (4-5 mice per group) were inoculated subcutaneously with 1×10^6 B16F10 tumor cells. Eight days post-inoculation the mice were injected with a single intratumoral dose of PBS, 20 μg of free 3-3 cAIMPdFSH, or 0.1 μg of 3-3 cAIMPdFSH loaded in PTGFN-overexpressing exosomes (exeSTING). Four hours post-injection the tumors, draining lymph nodes, spleens, and serum were collected and cytokine levels were measured. […] In addition to gene expression, serum cytokine profiles are showing same trend (FIG. 58).

[1] = tested on: B16F10 murine melanoma cells; experiment: Advanced B16F10 melanoma tumor growth; format: in vivo, C57BL/6 mice; details: days 10, 13, 16
Procedure: Treatment was started when tumor volume reached ˜ 50 mm3. To test the activity in advanced tumor, C57BL/6 mice were inoculated subcutaneously with 1×10^6 B16F10 murine melanoma cells (n=5 mice per group) and waited until tumor volume reached ˜100 mm^3. Ten, thirteen, and sixteen days post-inoculation, the mice were injected intratumorally with exosomes, 30 μg of free 3-3 cAIMPdFSH, 0.3 μg of free 3-3 cAIMPdFSH, 0.1 μg of 3-3 cAIMPdFSH loaded in PTGFRN-overexpressing exosomes, or 0.3 μg of 3-3 cAIMPdFSH loaded in PTGFRN-overexpressing exosomes. Tumor volumes were measured daily until day 28, and animals were sacrificed when tumor volume reached 2000 mm^3.

A20 lymphoma cells = experiment: CIVO intratumoral microinjection, cleaved caspase 3 staining; format: in vivo, BALB/cAnNHsd mice
Procedure: All experiments in mice were approved by IACUC Board of Presage Biosciences, Seattle, Wash. (Protocol number PR-001) and were performed at Presage in accordance with relevant guidelines and regulations. All relevant procedures were performed under anesthesia and all efforts were made to minimize pain and suffering. Female BALB/cAnNHsd mice (Envigo) with an average weight of 18 gm were used for experiments at 5-7 weeks of age. For generating A20 allografts, mice were inoculated with 1 million A20 cells in 100 μl inoculation volume.
CIVO intra-tumoral microinjections were performed as described in Klinghoffer et al. (2016) Science Translational Medicine. Briefly, mice (n=6 per time point, 4 and 24 hours) were enrolled in microinjection studies when implanted tumors reached the following approximate dimensions: 14 mm (length), 10 mm (width) and 7 mm (depth). […]
Images of every cell from each tissue section stained were captured by digital, automated, high-resolution whole-tissue scanning (3D Histech Panoramic 250 Flash). Tumor responses were quantified from image files from each tissue section using Presage's custom CIVO Analyzer image analysis platform. […] In order to mitigate the influence of pre-existing necrosis on biomarker measurements, injection sites that fall within largely acellular tumor regions are excluded prior to quantitative analysis. […]

Row | SMILES | primary tumor growth (B16F10 melanoma cells; 120 ng free) | primary tumor growth (B16F10 melanoma cells; 20 μg intratumoral days 5, 8, 11) | IFNβ gene expression in tumors, draining lymph node, spleen (STING pathway) | tumor growth compared to exosomes control ([1]; 0.3 μg free, start ~100 mm^3) | tumor burden compared to exosomes control ([1]; 30 μg free) | cleaved caspase 3 (CC3) (A20 lymphoma cells; high dose free (printed 2 g), four and 24 hours) | cleaved caspase 3 (CC3) (A20 lymphoma cells; low dose free (printed 200 ng))
1 | Nc1ncnc2c1ncn2[C@@H]1O[C@@H]2COP(=O)(S)O[C@H]3[C@@H](F)[C@H](n4cnc5c(=O)[nH]cnc54)O[C@@H]3COP(O)(=S)O[C@H]2[C@H]1F (stereo partly shown) [3-3 cAIMPdFSH, 3′3′-cAIMPdFSH] | no tumor regression observed | did not grow | comparable in the 20 μg free STING agonist and 0.1 μg exosome-STING agonist groups | tumor growth was not affected | great reduction of tumor burden |  | 
2 | Nc1ncnc2c1ncn2[C@@H]1O[C@@H]2COP(O)(=S)O[C@@H]3C(O)[C@@H](COP(O)(=S)O[C@H]2[C@H]1O)O[C@H]3n1cnc2c(N)ncnc21 (stereo partly shown) [ML RR-S2 CDA] |  |  |  |  |  | dramatically increased at four and 24 hours | modest
